Biological target: T1, PPARα (Homo sapiens, UniProt Q07869)
T1 construct: made in house; host or cells: Sf9 insect cells (baculovirus), crude cell lysate
T1 sequence (Q07869 1-468): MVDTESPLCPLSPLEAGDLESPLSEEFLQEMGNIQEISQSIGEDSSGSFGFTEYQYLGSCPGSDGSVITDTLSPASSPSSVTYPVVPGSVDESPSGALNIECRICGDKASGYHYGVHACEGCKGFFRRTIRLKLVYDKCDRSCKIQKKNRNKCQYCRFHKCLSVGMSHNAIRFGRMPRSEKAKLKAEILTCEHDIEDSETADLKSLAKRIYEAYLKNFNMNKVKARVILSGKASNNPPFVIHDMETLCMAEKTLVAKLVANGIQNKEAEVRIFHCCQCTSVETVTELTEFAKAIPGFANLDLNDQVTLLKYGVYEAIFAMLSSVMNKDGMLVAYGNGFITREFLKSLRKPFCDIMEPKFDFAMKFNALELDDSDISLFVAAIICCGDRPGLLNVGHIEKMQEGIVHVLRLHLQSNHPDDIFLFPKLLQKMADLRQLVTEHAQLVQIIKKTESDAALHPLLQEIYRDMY
T1 sequence (P19793 1-462 partner): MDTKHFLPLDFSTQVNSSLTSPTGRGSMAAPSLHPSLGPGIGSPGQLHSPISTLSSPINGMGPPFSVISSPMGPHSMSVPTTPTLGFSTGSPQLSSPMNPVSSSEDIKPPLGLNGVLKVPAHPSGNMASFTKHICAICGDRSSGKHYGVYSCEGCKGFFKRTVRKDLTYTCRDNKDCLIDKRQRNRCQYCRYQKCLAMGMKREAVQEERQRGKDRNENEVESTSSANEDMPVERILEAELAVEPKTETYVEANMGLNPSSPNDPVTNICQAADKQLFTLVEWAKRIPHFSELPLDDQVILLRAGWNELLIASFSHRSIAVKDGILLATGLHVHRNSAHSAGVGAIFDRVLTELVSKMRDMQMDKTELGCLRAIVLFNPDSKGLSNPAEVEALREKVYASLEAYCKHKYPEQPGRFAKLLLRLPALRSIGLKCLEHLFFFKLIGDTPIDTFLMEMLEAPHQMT
Assay: PPAR alpha binding assay (SPA)
Conditions: tritiated GW2331, n=3, read-out: Ki PPAR α binding
Text: The nucleotide sequences encoding full-length PPARα receptor DNA (National Center for Biotechnology Information (NCBI) Reference Sequence NM_005036.4), PPARδ receptor DNA (NCBI Reference Sequence NM_006238.4), PPARγ receptor DNA (NCBI Reference Sequence NM_015869.4) and Retinoid X Receptor (RXR) α DNA (NCBI Reference Sequence NM_002957.4) are synthesized and inserted into pFastBacHTb (Invitrogen) vector in-framed with the N-terminal HIS tag from the vector. […] The protein concentration is determined by Bradford assay using BSA as the standard.
Binding Affinities of Compounds for the PPAR α, δ, γ Receptors are Assessed Using Scintillation Proximity Assay (SPA) Technology.
Biotinylated oligonucleotide(DR2) ^5′[…]^3′ (SEQ ID NO: 1) is used for binding of receptors to Yttrium silicate streptavidin-coated SPA beads (Perkin Elmer). The PPAR α, δ, γ and Retinoid X Receptor (RXR) α receptors (endogenously expressed as heterodimers) are cell lysates from Baculovirus expression systems in Sf9 cells. […] Non-specific binding is determined in the presence of 10000 nM unlabeled GW2331 (Kliewer, S. A. et al Proc. Natl. Acad. Sci. USA (1997), 94: 4318-4323) for the alpha and delta receptors and 2-methyl-2-[4-[3-[propyl[(5-pyridin-2-ylthiophen-2-yl)sulfonyl]amino]-propyl]phenoxy]propanoic (WO 2004/073606) for the gamma receptor. […]

## CCCc1c(NC(=O)CC(C)(C)C(=O)[O-])cccc1OCCCOc1cc(O)c(-c2ccc(F)cc2)cc1CC.[Na+] [Example 2, Sodium 4-[[3-[3-[2-ethyl-4-(4-fluorophenyl)-5-hydroxy-phenoxy]propoxy]-2-propyl-phenyl]amino]-2,2-dimethyl-4-oxo-butanoate]
  Ki: ~617 nM

Reference: patent US9187411B2, “Leukotriene B4 antagonist compound” (Eli Lilly and Company, priority 2012, dated 2015)
